This is an account of results in ChEMBL document CHEMBL1131692, “A study of novel antiallergic agents with eosinophilic infiltration inhibiting action” (Bioorg Med Chem Lett, 1999).

The species named for this experiment is Cavia porcellus. The experiment in a line: Evaluated for antihistamine action using guinea pig ilea. The format is functional. Conditions: read-out: pA2 (converted).

In the case of `Cc1cc(OCCCCCCCCN2CCN(C(c3ccccc3)c3ccccc3)CC2)c(C)c(C)c1O`, the Kb is 275 nM.

`Cc1cc(OCCCCCCCCCCN2CCN(C(c3ccccc3)c3ccccc3)CC2)c(C)c(C)c1O`: the Kb was 407 nM.

`Cc1cc(OCCCCN2CCN(C(c3ccccc3)c3ccccc3)CC2)c(C)c(C)c1O`: the Kb was 77.6 nM.

Turning to `O=c1[nH]c2ccccc2n1CCCN1CCN(C(c2ccccc2)c2ccccc2)CC1` [OXATOMIDE], the Kb is 45.7 nM.

For `Cc1cc(OCCCN2CCN(C(c3ccccc3)c3ccccc3)CC2)c(C)c(C)c1O`, the Kb is 74.1 nM.

Turning to `Cc1cc(OCCCCCCN2CCN(C(c3ccccc3)c3ccccc3)CC2)c(C)c(C)c1O`, the Kb was 155 nM.

Consider `Cc1cc(OCCN2CCN(C(c3ccccc3)c3ccccc3)CC2)c(C)c(C)c1O`, for which the Kb is 117 nM.

Turning to `Cc1cc(OCCCCCN2CCN(C(c3ccccc3)c3ccccc3)CC2)c(C)c(C)c1O`, the Kb was 151 nM.
